According to patent publication US9974776B2, “Estrogen receptor beta agonists for use in treating mesothelioma” (Karo Pharma AB, priority 2013, dated 2018):
Entries after “also recorded” stand apart in the source; their conditions may differ.

Legend:
MET5A cells = experiment: Proliferation assay in non-malignant mesothelial MET5A cells; type: cell-based
Experimental: (§1) Cells were seeded at a density of 10×10^4 cells/well in 6-well plates in RPMI medium supplemented with 10% FBS, 100 μg/ml streptomycin and 10 μg/ml penicillin and incubated over-night at 37° C. in a humidified environment containing 5% CO2 to allow adherence. Following treatment cells were trypsinized and stained with Trypan blue. The number of cells considered viable (unstained cells) was counted in a Bürker haemocytometer within 5 minutes after staining.
(§2) Cell cultures were pretreated with Compound (I) for 1-16 hours (depending on experiment) followed by wash-off and then replenished with normal growth medium±cisplatin, pemetrexed or cisplatin/pemetrexed. Total incubation time was 24-72 hours (depending on experiment). Control cultures were maintained in normal growth medium without added drug. The number of viable cells was determined as described for the proliferation assay.

MMB cells = experiment: Proliferation assay in MMB cells; type: cell-based; settings: 10 nM single agent, 24 and 48 hours
Experimental: as §1

MSTO-211H cells = experiment: Proliferation assay in ERβ negative MSTO-211H cells; type: cell-based; settings: 10 nM single agent, 24 and 48 hours
Experimental: as §1

REN cells = experiment: Cell cycle analysis (propidium iodide, flow cytometry) in REN cells; type: cell-based, human; settings: 10 nM 2 hours pre-treatment, then 100 μM cisplatin 24 hours
Experimental: For cell cycle/apoptosis analysis, 5×10^5 cells were seeded in tissue culture plates and treated with 100 μM cisplatin for 24 hours or pre-treated for 2 hours with 10 nM Compound (I) followed by wash-off and continued growth in normal medium±100 μM cisplatin, for additional 24 hours at 37° C. in a 5% CO2 atmosphere. After incubation, detached and suspended cells were harvested in complete RPMI and centrifuged at 500×g for 10 minutes. Pellets were washed with PBS, fixed in ice-cold 75% ethanol at 4° C., treated with […] RNAse A for 1 hour at 37° C., stained with 25 μg/mL propidium iodide and finally analyzed by using a flow cytometer FACS (Becton Dickinson, San Jose, Calif., USA) and Modfit software (Verity Software House, Topsham, Me., USA).
REN cells were treated for 24 hours with 100 μM cisplatin or pre-treated 2 hours with 10 nM Compound (I) followed by wash-off and continued growth in normal medium±100 μM cisplatin, for an additional 24 hours. Cell cycle analysis was performed as described above. Control cultures were maintained in normal growth medium. After treatments, cells were stained with propidium iodide and analysed for cellular DNA content by flow cytometry.

AKT phosphorylation = experiment: Western blot of AKT phosphorylation in MET5A cells; type: cell-based; settings: 10 nM 2 hours pre-treatment
Experimental: (§3) Cells were extracted with 1% NP-40 lysis buffer (1% NP-40, 150 mM NaCl, 50 mM Tris-HCl pH 8.5 mM EDTA, 10 mM NaF, 10 mM Na4P2O7, 0.4 mM Na3VO4) with freshly added protease inhibitors (10 μg/ml leupeptin, 4 μg/ml pepstatin and 0.1 Unit/ml aprotinin). For protein extraction from tissues, ˜100 mg of each sample were homogenized, using a Potter-Elvehjem homogenizer device, in 1% NP-40 lysis buffer. Lysates were centrifuged at 13.000×g for 10 minutes at 4° C. and the supernatants were collected and assayed for protein concentration with the Bio-Rad protein assay method.
(§4) Proteins were separated by SDS-PAGE under reducing conditions. Following SDS-PAGE, proteins were transferred to nitrocellulose, reacted with specific antibodies and then detected with peroxidase-conjugate secondary antibodies and chemioluminescent ECL reagent. Densitometric analysis was performed using the GS 250 Molecular Image (Bio-Rad).
Levels of PARP1, cleaved PARP1, AKT and phosphorylated AKT in the MET5A cell cultures at 24 hours were also determined by Western blot analysis and relative densitometry.

MMP cells = experiment: Proliferation assay (wash-off experiment) in MMP cells; type: cell-based, human; settings: 10 nM 2 hours, 50 μM cisplatin 24 hours
Experimental: as §1, §2
50 μM cisplatin was added to MMP cell cultures pre-treated for 2 hours with 10 nM Compound (I) (wash-off experiment). The number of viable cells at 24 hours was determined as described for the proliferation assay above. Control cultures were maintained in normal growth medium; growth medium plus Compound (I) (10 nM); and growth medium plus cisplatin (50 μM).

PARP1 cleavage = experiment: Western blot of PARP1 cleavage in MMP cells; type: cell-based, human; settings: 10 nM two hours, wash-off, 50 μM cisplatin
Experimental: as §3, §4
Levels of PARP1, cleaved PARP1, AKT and phosphorylated AKT in the MMP cell cultures at 24 hours were also determined by Western blot analysis.

Cc1noc(C)c1-c1c(/C(N)=N/O)c2ccccc2n1-c1ccc(O)cc1 [Compound (I)]
effect on cisplatin toxicity in MET5A cells (MET5A cells; 10 nM 2 hours pre-treatment, wash-off, cisplatin 25, 50, 100 μM 24 hours): protective effect was observed when Compound (I) pre-treatment was combined with low doses of cisplatin; also recorded: diminished and/or counteracted the toxicity of cisplatin | MET5A cell proliferation or viability, alone (MET5A cells; 10 nM 2 hours, wash-off, normal medium 24 hours): no effect on MET5A cell proliferation or viability | inhibition of proliferation, MET5A cells (MET5A cells; 10 nM single agent, 24 and 48 hours, high endogenous ERβ): no inhibitory effect was observed | inhibition of proliferation, MMB cells (MMB cells): significantly (p≤0.05) inhibited proliferation | inhibition of proliferation, MSTO-211H cells (MSTO-211H cells): no response | cell cycle phase distribution (REN cells): significant and efficient blockage of the cell cycle in the G0/G1 phase and inhibition of cells entering the S-phase | percentage of dead cells (REN cells): significant higher percentage of dead cells | basal pAKT levels in MET5A control cells (AKT phosphorylation; no cisplatin): no effect on basal pAKT levels | effect on cisplatin-mediated inhibition of pAKT in MET5A cells (AKT phosphorylation; then cisplatin): antagonized the cisplatin-mediated inhibition of pAKT | anti-proliferative effect in MMP cells, pre-treatment then cisplatin (MMP cells): enhanced anti-proliferative effect of cisplatin was observed; also recorded: synergistic growth inhibition compared to Compound (I) or cisplatin alone | level of cleaved PARP1 in MMP cells (PARP1 cleavage): most significant increase in the level of cleaved PARP1
